Experimental data: publication PMC9923211, “Functional characterization and key residues engineering of a regiopromiscuity O-methyltransferase involved in benzylisoquinoline alkaloid biosynthesis in Nelumbo nucifera” (Horticulture Research, 2022)

Experiments:
Assay in all cases: UPLC-MS methylation assay, Michaelis-Menten fit
[1] = molecular target: T1, NnOMT6 (Nelumbo nucifera, UniProt A0A1U7Z1M5); type: biochemical; conditions: 50 mM potassium phosphate pH 8.0, 37°C, 30 min
T1 construct: gene LOC104585771

[2] = system: COc1c(O)cc2c3c1-c1ccccc1C[C@@H]3NCC2; type: biochemical, Nelumbo nucifera; conditions: SAM as methyl donor, 50 mM potassium phosphate pH 8.0, 37°C, 30 min
[3] = system: COc1cc2c(cc1O)[C@@H]1Cc3ccc(OC)c(O)c3CN1CC2; type: biochemical, Nelumbo nucifera; conditions: SAM as methyl donor, 50 mM potassium phosphate pH 8.0, 37°C, 30 min

## C[S+](CC[C@H](N)C(=O)O)C[C@H]1O[C@@H](n2cnc3c(N)ncnc32)[C@H](O)[C@@H]1O (some centres unmarked) [SAM]
[1]; 200 μM caffeic acid as acceptor
  Km: 163 µM

## Oc1ccc(C[C@@H]2NCCc3cc(O)c(O)cc32)cc1 [compound 1, (S)-norcoclaurine]
[1]; 200 μM SAM
  Km: 282 µM

## O=C(O)/C=C/c1ccc(O)c(O)c1 [compound 16, caffeic acid]
[1]; 200 μM SAM
  Km: 216 µM

## NnOMT6 (Nelumbo nucifera; N323A)
[2]
  Km: 132.77 µM
[3]
  Km: 86.35 µM
